Measurements taken from publication PMC10184128 (Journal of Medicinal Chemistry, 2023).

Key:
human Nurr1 = human Nurr1 (Homo sapiens, UniProt P43354); settings: for activation of Gal4-Nurr1 (hybrid assay): all compounds tested at 10 μM, n = 3; for EC50(Nurr1): Gal4 hybrid reporter gene assay, mean ± S.E.M., n ≥ 3, inactive = at 10 μM
[1] = biological target: full-length human Nurr1 (NBRE) (Homo sapiens, UniProt P43354); settings: all compounds tested at 10 μM, n = 3
NOR1 (NR4A3) = biological target: T1, NOR1 (NR4A3) (Homo sapiens, UniProt Q92570); assay: cell-based
T1 sequence (Q92570 394-623 limits assumed): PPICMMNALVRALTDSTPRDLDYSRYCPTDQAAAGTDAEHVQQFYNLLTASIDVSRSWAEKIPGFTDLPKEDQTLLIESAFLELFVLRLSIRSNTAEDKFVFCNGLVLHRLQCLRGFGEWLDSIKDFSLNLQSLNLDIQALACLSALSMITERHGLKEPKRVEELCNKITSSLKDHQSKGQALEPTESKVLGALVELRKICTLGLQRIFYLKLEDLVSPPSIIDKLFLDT

Sequence of full-length human Nurr1 (NBRE) (P43354 whole entry): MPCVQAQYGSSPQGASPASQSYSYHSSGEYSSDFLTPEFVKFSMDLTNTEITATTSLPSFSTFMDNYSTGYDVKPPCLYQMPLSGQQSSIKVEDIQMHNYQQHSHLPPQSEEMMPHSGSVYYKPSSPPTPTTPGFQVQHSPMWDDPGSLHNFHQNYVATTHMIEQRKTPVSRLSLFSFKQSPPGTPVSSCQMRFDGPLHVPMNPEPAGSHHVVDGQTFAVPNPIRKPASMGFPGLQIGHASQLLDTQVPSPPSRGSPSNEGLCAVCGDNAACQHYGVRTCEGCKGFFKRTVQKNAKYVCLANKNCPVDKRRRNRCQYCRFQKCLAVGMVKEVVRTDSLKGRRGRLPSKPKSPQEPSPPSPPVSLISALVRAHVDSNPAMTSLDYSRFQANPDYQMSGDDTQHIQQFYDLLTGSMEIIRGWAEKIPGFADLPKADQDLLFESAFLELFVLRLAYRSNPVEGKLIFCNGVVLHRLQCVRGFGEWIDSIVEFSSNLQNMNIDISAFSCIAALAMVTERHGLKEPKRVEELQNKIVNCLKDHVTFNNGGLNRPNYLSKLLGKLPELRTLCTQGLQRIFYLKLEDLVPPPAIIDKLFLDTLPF
Sequence of human Nurr1 (P43354 360-595 limits assumed): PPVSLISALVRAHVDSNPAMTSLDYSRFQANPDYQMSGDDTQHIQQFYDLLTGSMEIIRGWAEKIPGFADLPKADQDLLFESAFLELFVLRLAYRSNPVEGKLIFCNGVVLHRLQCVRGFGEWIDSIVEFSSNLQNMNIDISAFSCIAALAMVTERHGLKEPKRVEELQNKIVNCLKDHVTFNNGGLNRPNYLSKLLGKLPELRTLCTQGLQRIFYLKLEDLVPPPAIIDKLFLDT

Row | SMILES | activation of Gal4-Nurr1 (hybrid assay) (human Nurr1) | activation of full-length Nurr1 (NBRE) [1] | EC50(Nurr1) (human Nurr1) | EC50 (NOR1 (NR4A3)) [nM]
1 | Cc1ccccc1-c1ccc(-c2cc(C(=O)O)c3c(c2)nnn3C)cc1 [AG-636] | No other tested DHODH inhibitor caused activation | No other tested DHODH inhibitor caused activation |  | 
2 | O=C(Nc1c(F)c(F)c(-c2ccccc2)c(F)c1F)c1c(=O)[nH]n2ccccc12 [MEDS433] | No other tested DHODH inhibitor caused activation | No other tested DHODH inhibitor caused activation |  | 
3 | [2H]C([2H])([2H])Oc1cccc(C23CCC(NC(=O)C4=C(C(=O)O)CCC4)(CC2)CC3)c1 [compound 8] |  |  | inactive (10 μM) | 
4 | [2H]C([2H])([2H])Oc1cccc(-c2ccc(N(C)C(=O)C3=C(C(=O)O)CCC3)c(F)c2)c1 [compound 9] |  |  | inactive (10 μM) | 
5 | C#CCOc1cccc(-c2ccc(NC(=O)C3=C(C(=O)O)CCC3)c(F)c2)c1 [compound 29, 2-[(3-Fluoro-3′-prop-2-yn-1-yloxy[1,1′-biphenyl]-4-yl)carbamoyl]cyclopent-1-ene-1-carboxylic acid] |  |  |  | 1300 ± 300
6 | COc1cccc(-c2cc(F)c(Nc3ncccc3C(=O)O)c(F)c2)c1 [farudodstat] | No other tested DHODH inhibitor caused activation | No other tested DHODH inhibitor caused activation |  | 
